Patent publication US20230227427A1, “IL-17A MODULATORS” (SANOFI, priority 2010, published 2023)
Read-outs that look alike come from different tables or passages of the source.

Biological target: T1, human recombinant IL-17A (Homo sapiens, UniProt Q16552)
T1 construct: purchased R&D Systems 7955-IL/CF
T1 sequence (Q16552 24-155): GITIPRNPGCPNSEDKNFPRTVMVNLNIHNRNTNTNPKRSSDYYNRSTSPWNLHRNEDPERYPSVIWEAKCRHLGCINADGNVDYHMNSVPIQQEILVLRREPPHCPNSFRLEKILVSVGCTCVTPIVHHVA
Experiment: IL-17A AlphaLISA assay (block binding of IL-17A to its receptor IL-17RA)
Conditions: read-out: AlphaLISA pIC50 (converted)
Experimental: The ability of the compounds to block binding of IL-17A to its receptor, IL-17RA, was analysed in a competition assay using AlphaLISA technology (Perkin Elmer). The assay is a bead based AlphaLISA where the IL-17RA is captured on the acceptor bead via an Fc tag and IL-17A is captured on the streptavidin donor bead via a biotinylated anti-IL17A antibody.
Assay buffer was prepared by adding 0.05% Tween-20 (v/v) and 0.1% BSA to Phosphate Buffered Saline (PBS). The assay was carried out in 384-well white low volume plates (Corning 4512). 10 µL of a 7.5 nM stock of human recombinant IL-17A (R&D Systems 7955-IL/CF) diluted in assay buffer was dispensed into the assay plate and compounds or DMSO vehicle control were added in a volume of 75 nL using a D300 dispenser (Hewlett Packard). The compounds were pre-incubated with the IL-17A for 24 h at room temperature (or for 30 min, where indicated by * in Table A below) prior to addition of 5 μL of a 5 nM stock of human recombinant IL-17RA/Fc chimera (R&D Systems 177-IR-100) diluted in assay buffer. The IL-17A was incubated with the receptor for a further 90 minutes at room temperature before addition of 5 μL of a mixture of anti-human Fc IgG acceptor beads (75 μg/mL, Perkin Elmer AL103C) and anti-IL-17A biotin conjugated antibody (5 nM, Enzo Life Sciences, ENZ-ABS278-0100) in assay buffer. After a further 30 min incubation at room temperature, 5 μL of streptavidin donor beads ([…], Perkin Elmer 6760002S) were added and the plate was incubated for 3 h in the dark.
The luminescence signal was measured using an Enspire plate reader (Perkin Elmer) with excitation at 680 nm and emission at 615 nm. Data were analysed using GraphPad Prism and fitted to a 4-parameter logistic equation. The IC50 values were calculated using the DMSO vehicle as the negative control and a high concentration (6 μM) of a reference IL-17A inhibitor as the positive control.
Activity of the Example compounds is reported as a PIC50 value in Table A.

[1] = compounds pre-incubated with the IL-17A for 30 min (indicated by * in Table A)
[2] = compounds pre-incubated with the IL-17A for 24 h at room temperature

Structure (SMILES) | IC50 [1] [nM] | IC50 [2] [nM]
Cc1nccc(-c2ccc(NC(=O)[C@@H](NC(=O)c3ccnn3C)C(c3ccccc3)c3ccccc3)cc2)c1C [Example 1, (S)—N-(1-((4-(2,3-dimethylpyridin-4-yl)phenyl)amino)-1-oxo-3,3-diphenylpropan-2-yl)-1-methyl-1H-pyrazole-5-carboxamide] | – | 50.1
Cn1nccc1C(=O)N[C@H](C(=O)Nc1ccc(-c2ccncc2Cl)cc1)C(c1ccccc1)c1ccccc1 [Example 2, (S)—N-(1-((4-(3-chloropyridin-4-yl)phenyl)amino)-1-oxo-3,3-diphenylpropan-2-yl)-1-methyl-1H-pyrazole-5-carboxamide] | – | 31.6
COc1cnccc1-c1ccc(NC(=O)[C@@H](NC(=O)c2ccnn2C)C(c2ccccc2)c2ccccc2)cc1 [Example 3, (S)—N-(1-((4-(3-methoxypyridin-4-yl)phenyl)amino)-1-oxo-3,3-diphenylpropan-2-yl)-1-methyl-1H-pyrazole-5-carboxamide] | – | 12.6
Cc1cnccc1-c1ccc(NC(=O)[C@@H](NC(=O)c2ccnn2C)C(c2ccccc2)c2ccccc2)cc1 [Example 4, (S)-1-methyl-N-(1-((4-(3-methylpyridin-4-yl)phenyl)amino)-1-oxo-3,3-diphenylpropan-2-yl)-1H-pyrazole-5-carboxamide] | – | 20
Cn1nccc1C(=O)N[C@H](C(=O)Nc1ccc(-c2ccncc2C(F)(F)F)cc1)C(c1ccccc1)c1ccccc1 [Example 5, (S)-1-methyl-N-(1-oxo-3,3-diphenyl-1-((4-(3-(trifluoromethyl)pyridin-4-yl)phenyl)amino)propan-2-yl)-1H-pyrazole-5-carboxamide] | – | 63.1
Cc1cncc(C)c1-c1ccc(NC(=O)[C@@H](NC(=O)c2ccnn2C)C(c2ccccc2)c2ccccc2)cc1 [Example 6, (S)—N-(1-((4-(3,5-dimethylpyridin-4-yl)phenyl)amino)-1-oxo-3,3-diphenylpropan-2-yl)-1-methyl-1H-pyrazole-5-carboxamide] | – | 12.6
CNc1cnccc1-c1ccc(NC(=O)[C@@H](NC(=O)c2ccnn2C)C(c2ccccc2)c2ccccc2)cc1 [Example 7, (S)-1-methyl-N-(1-((4-(3-(methylamino)pyridin-4-yl)phenyl)amino)-1-oxo-3,3-diphenylpropan-2-yl)-1H-pyrazole-5-carboxamide] | – | 12.6
CN(C)c1cnccc1-c1ccc(NC(=O)[C@@H](NC(=O)c2ccnn2C)C(c2ccccc2)c2ccccc2)cc1 [Example 8, (S)—N-(1-((4-(3-(dimethylamino)pyridin-4-yl)phenyl)amino)-1-oxo-3,3-diphenylpropan-2-yl)-1-methyl-1H-pyrazole-5-carboxamide] | – | 15.8
COc1cncc(OC)c1-c1ccc(NC(=O)[C@@H](NC(=O)c2ccnn2C)C(c2ccccc2)c2ccccc2)cc1 [Example 9, (S)—N-(1-((4-(3,5-dimethoxypyridin-4-yl)phenyl)amino)-1-oxo-3,3-diphenylpropan-2-yl)-1-methyl-1H-pyrazole-5-carboxamide] | – | 6.31
COc1cncc(F)c1-c1ccc(NC(=O)[C@@H](NC(=O)c2ccnn2C)C(c2ccccc2)c2ccccc2)cc1 [Example 10, (S)—N-(1-((4-(3-fluoro-5-methoxypyridin-4-yl)phenyl)amino)-1-oxo-3,3-diphenylpropan-2-yl)-1-methyl-1H-pyrazole-5-carboxamide] | – | 7.94
Cc1[nH]c(=O)ccc1-c1ccc(NC(=O)[C@@H](NC(=O)c2ccnn2C)C(c2ccccc2)c2ccccc2)cc1 [Example 11, (S)-1-methyl-N-(1-((4-(2-methyl-6-oxo-1,6-dihydropyridin-3-yl)phenyl)amino)-1-oxo-3,3-diphenylpropan-2-yl)-1H-pyrazole-5-carboxamide] | – | 15.8
Cc1cc(=O)n(C)cc1-c1ccc(NC(=O)[C@@H](NC(=O)c2ccnn2C)C(c2ccccc2)c2ccccc2)cc1 [Example 12, (S)—N-(1-((4-(1,4-dimethyl-6-oxo-1,6-dihydropyridin-3-yl)phenyl)amino)-1-oxo-3,3-diphenylpropan-2-yl)-1-methyl-1H-pyrazole-5-carboxamide] | – | 10
Cc1c(-c2ccc(NC(=O)[C@@H](NC(=O)c3ccnn3C)C(c3ccccc3)c3ccccc3)cc2)ccc(=O)n1C [Example 13, (S)—N-(1-((4-(1,2-dimethyl-6-oxo-1,6-dihydropyridin-3-yl)phenyl)amino)-1-oxo-3,3-diphenylpropan-2-yl)-1-methyl-1H-pyrazole-5-carboxamide] | – | 7.94
Cc1cncc(C)c1-c1ccc(NC(=O)[C@@H](NC(=O)c2ccnn2C)C(c2ccccc2)c2ccccc2)cc1F [Example 14, (S)—N-(1-((4-(3,5-dimethylpyridin-4-yl)-3-fluorophenyl)amino)-1-oxo-3,3-diphenylpropan-2-yl)-1-methyl-1H-pyrazole-5-carboxamide] | – | 39.8
Cc1cnccc1-c1ccc(NC(=O)[C@@H](NC(=O)c2ccnn2C)C(c2ccccc2)c2ccccc2)cc1F [Example 15, (S)—N-(1-((3-fluoro-4-(3-methylpyridin-4-yl)phenyl)amino)-1-oxo-3,3-diphenylpropan-2-yl)-1-methyl-1H-pyrazole-5-carboxamide] | – | 50.1
Cc1c(-c2ccc(NC(=O)[C@@H](NC(=O)c3ccnn3C)C(c3ccccc3)c3ccccc3)cc2F)ccc(=O)n1C [Example 16, (S)—N-(1-((4-(1,2-dimethyl-6-oxo-1,6-dihydropyridin-3-yl)-3-fluorophenyl)amino)-1-oxo-3,3-diphenylpropan-2-yl)-1-methyl-1H-pyrazole-5-carboxamide] | – | 15.8

Next, values leading:

IC50 [1] [nM] | IC50 [2] [nM] | Structure (SMILES)
251 | – | Cc1cncc(C)c1-c1ccc(NC(=O)[C@@H](NC(=O)c2ccnn2C)C2CCC(F)(F)CC2)cc1 (single isomer, unassigned) [Example 98]
200 | – | Cc1cncc(C)c1-c1ccc(NC(=O)[C@@H](NC(=O)c2ccnn2C)C2CCC(C)(C)CC2)cc1 (single isomer, unassigned) [Example 100]
– | 15.8 | Cc1cc(=O)n(C)cc1-c1ccc(NC(=O)[C@@H](NC(=O)c2ccnn2C)C(c2ccccc2)c2ccccc2)cc1F [Example 17, (S)—N-(1-((4-(1,4-dimethyl-6-oxo-1,6-dihydropyridin-3-yl)-3-fluorophenyl)amino)-1-oxo-3,3-diphenylpropan-2-yl)-1-methyl-1H-pyrazole-5-carboxamide]
– | 31.6 | COc1cncc(F)c1-c1ccc(NC(=O)[C@@H](NC(=O)c2ccnn2C)C(c2ccccc2)c2ccccc2)cc1F [Example 18, N-((2S)-1-((3-fluoro-4-(3-fluoro-5-methoxypyridin-4-yl)phenyl)amino)-1-oxo-3,3-diphenylpropan-2-yl)-1-methyl-1H-pyrazole-5-carboxamide]
– | 63.1 | COc1cnccc1-c1ccc(NC(=O)[C@@H](NC(=O)c2ccnn2C)C(c2ccc(F)cc2)c2ccc(F)cc2)cc1 [Example 19, (S)—N-(1,1-bis(4-fluorophenyl)-3-((4-(3-methoxypyridin-4-yl)phenyl)amino)-3-oxopropan-2-yl)-1-methyl-1H-pyrazole-5-carboxamide]
– | 31.6 | COc1cnccc1-c1ccc(NC(=O)[C@@H](NC(=O)c2ccnn2C)C(c2ccccc2)c2ccccc2)cc1C [Example 20, (S)—N-(1-((4-(3-methoxypyridin-4-yl)-3-methylphenyl)amino)-1-oxo-3,3-diphenylpropan-2-yl)-1-methyl-1H-pyrazole-5-carboxamide]
– | 39.8 | Cn1nccc1C(=O)N[C@H](C(=O)Nc1ccc(-c2ccnc3[nH]ccc23)cc1)C(c1ccccc1)c1ccccc1 [Example 21, (S)—N-(1-((4-(1H-pyrrolo[2,3-b]pyridin-4-yl)phenyl)amino)-1-oxo-3,3-diphenylpropan-2-yl)-1-methyl-1H-pyrazole-5-carboxamide]
– | 25.1 | Cn1nccc1C(=O)N[C@H](C(=O)Nc1ccc(-c2ccnc3c2CCN3)cc1)C(c1ccccc1)c1ccccc1 [Example 22, (S)—N-(1-((4-(2,3-dihydro-1H-pyrrolo[2,3-b]pyridin-4-yl)phenyl)amino)-1-oxo-3,3-diphenylpropan-2-yl)-1-methyl-1H-pyrazole-5-carboxamide]
– | 39.8 | COc1cnccc1-c1ccc(NC(=O)[C@@H](NC(=O)c2ccnn2C)C(c2ccccc2)c2ccccc2)c(F)c1 [Example 23, (S)—N-(1-((2-fluoro-4-(3-methoxypyridin-4-yl)phenyl)amino)-1-oxo-3,3-diphenylpropan-2-yl)-1-methyl-1H-pyrazole-5-carboxamide]
